Assay results from US12612407B2, “Imidazo[2,1-f][1,2,4]triazin-4-amine derivatives as TLR7 agonist” (BEIGENE, LTD., priority 2020, dated 2026).
pEC50: −log10 of the molar value.

Target: T1, human TLR7 (Homo sapiens, UniProt Q9NYK1)
T1 construct: host or cells: HEK293 (HEK-Blue hTLR7)
T1 sequence (Q9NYK1 27-1049): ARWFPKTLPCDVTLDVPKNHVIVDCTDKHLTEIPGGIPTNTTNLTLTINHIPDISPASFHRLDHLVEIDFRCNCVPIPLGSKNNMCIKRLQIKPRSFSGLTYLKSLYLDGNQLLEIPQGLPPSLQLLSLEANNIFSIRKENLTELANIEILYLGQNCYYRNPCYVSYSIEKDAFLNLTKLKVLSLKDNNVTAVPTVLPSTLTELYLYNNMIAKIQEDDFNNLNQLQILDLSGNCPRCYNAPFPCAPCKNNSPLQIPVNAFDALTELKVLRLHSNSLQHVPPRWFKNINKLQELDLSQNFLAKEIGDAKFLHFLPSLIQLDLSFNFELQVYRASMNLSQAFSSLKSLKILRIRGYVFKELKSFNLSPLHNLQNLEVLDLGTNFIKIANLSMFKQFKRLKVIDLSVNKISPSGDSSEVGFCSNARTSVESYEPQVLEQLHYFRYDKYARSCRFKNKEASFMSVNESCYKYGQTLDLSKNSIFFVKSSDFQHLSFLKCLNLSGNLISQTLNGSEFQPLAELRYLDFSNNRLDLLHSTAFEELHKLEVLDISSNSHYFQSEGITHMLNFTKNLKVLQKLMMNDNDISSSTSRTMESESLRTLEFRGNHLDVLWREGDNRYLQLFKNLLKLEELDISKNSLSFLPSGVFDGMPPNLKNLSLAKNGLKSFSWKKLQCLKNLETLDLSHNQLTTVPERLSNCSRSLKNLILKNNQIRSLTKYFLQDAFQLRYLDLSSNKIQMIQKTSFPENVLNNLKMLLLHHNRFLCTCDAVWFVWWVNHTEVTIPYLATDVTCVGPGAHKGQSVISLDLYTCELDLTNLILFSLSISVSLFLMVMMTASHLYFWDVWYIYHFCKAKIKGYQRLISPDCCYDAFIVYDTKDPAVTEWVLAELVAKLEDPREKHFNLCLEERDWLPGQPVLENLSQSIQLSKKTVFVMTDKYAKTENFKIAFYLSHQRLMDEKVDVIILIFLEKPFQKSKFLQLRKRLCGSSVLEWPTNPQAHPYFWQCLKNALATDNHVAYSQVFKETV
Test: HEK293-Blue hTLR7 Reporter Assay (QUANTI-BLUE, SEAP readout)
Format: cell-based
Settings: HEK-Blue-hTLR7 cells
In short: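 HEK-Blue-hTLR7 cells expressing NF-κB/AP-1-driven SEAP, 4×10^4 cells/well, treated 24 h at 37° C with increasing compound concentrations. Supernatant SEAP measured with Quanti-blue substrate (10-30 min, 37° C) at 620-655 nm; EC50 from sigmoidal dose-response fit.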

[1] = 24 hrs treatment, Table 1, B1-B232

Row | Compound | pEC50 (Table 2, C1-C6) | pEC50 [1]
1 | 6-propoxy-3-(4-(pyrrolidin-1-ylmethyl)benzyl)imidazo[1,2-b]pyridazin-8-amine [Compound C4] | < 5.00 | 
2 | CCCCOc1nc(N)c2ncc(Cc3cnc(N4CCNCC4)c(OC)c3)n2n1 [Compound B11, 2-butoxy-7-((5-methoxy-6-(piperazin-1-yl)pyridin-3-yl)methyl)imidazo[2,1-f][1,2,4]triazin-4-amine] |  | 6.61
3 | CCCNc1nc(N)c2ncc(Cc3cnc(N4CCNCC4)c(C)c3)n2n1 [Compound B139, 7-((5-methyl-6-(piperazin-1-yl)pyridin-3-yl)methyl)-N2-propylimidazo[2,1-f][1,2,4]triazine-2,4-diamine] |  | 7.06
4 | CCCC(C)Nc1nc(N)c2ncc(Cc3cnc(N4CCC(CN(C)C)CC4)c(C)c3)n2n1 (stereo not shown) [Compound B137, 7-((6-(4-((dimethylamino)methyl)piperidin-1-yl)-5-methylpyridin-3-yl)methyl)-N2-(pentan-2-yl)imidazo[2,1-f][1,2,4]triazine-2,4-diamine] |  | 8.39
5 | CCCC(CCC)Oc1nc(N)c2ncc(Cc3cnc(N4CCN(C(=O)CN(C)C)CC4)c(C)c3)n2n1 [Compound B188, 1-(4-(5-((4-amino-2-(heptan-4-yloxy)imidazo[2,1-f][1,2,4]triazin-7-yl)methyl)-3-methylpyridin-2-yl)piperazin-1-yl)-2-(dimethylamino)ethan-1-one] |  | 8.44
6 | CC[C@@H](C)Oc1nc(N)c2ncc(Cc3cnc(N4CCN(C(=O)CNC)CC4)c(C)c3)n2n1 [Compound B159, (R)-1-(4-(5-((4-amino-2-(sec-butoxy)imidazo[2,1-f] [1,2,4]triazin-7-yl)methyl)-3-methylpyridin-2-yl)piperazin-1-yl)-2-(methylamino)ethan-1-one] |  | 7.32
7 | CCCCOc1nc(N)c2ncc(Cc3cnc(N4CCNCC4)c(Cl)c3)n2n1 [Compound B2, 2-butoxy-7-((5-chloro-6-(piperazin-1-yl)pyridin-3-yl)methyl)imidazo[2,1-f][1,2,4]triazin-4-amine] |  | 6.36
8 | CCCCOc1nc(N)c2ncc(Cc3cnc(N4CCNCC4)c(C(F)(F)F)c3)n2n1 [Compound B10, 2-butoxy-7-((6-(piperazin-1-yl)-5-(trifluoromethyl)pyridin-3-yl)methyl)imidazo[2,1-f][1,2,4]triazin-4-amine] |  | 6.38
9 | CCCC(C)Oc1nc(N)c2ncc(Cc3cnc(N4CCC(CN(C)C)CC4)c(C)c3)n2n1 (stereo not shown) [Compound B134, 7-((6-(4-((dimethylamino)methyl)piperidin-1-yl)-5-methylpyridin-3-yl)methyl)-2-(pentan-2-yloxy)imidazo[2,1-f][1,2,4]triazin-4-amine] |  | 8.22
10 | CCCCNc1nc(N)c2ncc(Cc3cnc(N4CCC(CN(C)C)CC4)c(C)c3)n2n1 [Compound B96, N2-butyl-7-((6-(4-((dimethylamino)methyl)piperidin-1-yl)-5-methylpyridin-3-yl)methyl)imidazo[2,1-f][1,2,4]triazine-2,4-diamine] |  | 7.77
11 | CCCC(C)Oc1nc(N)c2ncc(Cc3cnc(N4CCC(CNC)CC4)c(C)c3)n2n1 (stereo not shown) [Compound B205, 7-((5-methyl-6-(4-((methylamino)methyl)piperidin-1-yl)pyridin-3-yl)methyl)-2-(pentan-2-yloxy)imidazo[2,1-f][1,2,4]triazin-4-amine] |  | 8.19
12 | CCC[C@H](C)Oc1nc(N)c2ncc(Cc3cnc(N4CCN(CCO)CC4)c(C)c3)n2n1 [Compound B199, (S)-2-(4-(5-((4-amino-2-(pentan-2-yloxy)imidazo[2,1-f][1,2,4]triazin-7-yl)methyl)-3-methylpyridin-2-yl)piperazin-1-yl)ethan-1-ol] |  | 8.09
13 | CC[C@@H](C)Oc1nc(N)c2ncc(Cc3cnc(N4CCN(C(=O)CN(C)C)CC4)c(C)c3)n2n1 [Compound B153, (R)-1-(4-(5-((4-amino-2-(sec-butoxy)imidazo[2,1-f][1,2,4]triazin-7-yl)methyl)-3-methylpyridin-2-yl)piperazin-1-yl)-2-(dimethylamino)ethan-1-one] |  | 7.31
14 | CCCCOc1nc(N)c2ncc(Cc3ccc(N4CCNCC4)c(OCCC)c3)n2n1 [Compound B99, 2-butoxy-7-(4-(piperazin-1-yl)-3-propoxybenzyl)imidazo[2,1-f][1,2,4]triazin-4-amine] |  | 6.03
15 | 2-butoxy-7-((5-(piperidin-4-yl)pyridin-2-yl)methyl)imidazo[2,1-f][1,2,4]triazin-4-amine [Compound B77] |  | 6.51
16 | CCCCOc1nc(N)c2ncc(Cc3cnc(N4CCC(N5CCOCC5)CC4)c(C)c3)n2n1 [Compound B108, 2-butoxy-7-((5-methyl-6-(4-morpholinopiperidin-1-yl)pyridine-3-yl)methyl)imidazo[2,1-f][1,2,4]triazin-4-amine] |  | 6.80
17 | CCC[C@H](C)Nc1nc(N)c2ncc(Cc3cnc(N4CCNCC4)c(C)c3)n2n1 (single isomer, unassigned) [Compound B148] |  | 8.19
18 | CCCC(C)Oc1nc(N)c2ncc(Cc3cnc(N4CCN(C(=O)CN(C)C)CC4)c(C)c3)n2n1 (stereo not shown) [Compound B94, 1-(4-(5-((4-amino-2-(pentan-2-yloxy)imidazo[2,1-f] [1,2,4]triazin-7-yl)methyl)-3-methylpyridin-2-yl)piperazin-1-yl)-2-(dimethylamino)ethan-1-one] |  | 7.89
19 | CCCC(C)Nc1nc(N)c2ncc(Cc3cnc(N4CCC(N(C)C)CC4)c(C)c3)n2n1 (stereo not shown) [Compound B138, 7-((6-(4-(dimethylamino)piperidin-1-yl)-5-methylpyridin-3-yl)methyl)-N^2-(pentan-2-yl)imidazo[2,1-f][1,2,4]triazine-2,4-diamine] |  | 8.26
20 | CCCCOc1nc(N)c2ncc(Cc3ccc(C4CCNCC4)nc3)n2n1 [Compound B19, 2-butoxy-7-((6-(piperidin-4-yl)pyridin-3-yl)methyl)imidazo[2,1-f][1,2,4]triazin-4-amine] |  | 6.64
21 | CCCCCOc1nc(N)c2ncc(Cc3cnc(N4CCNCC4)c(C)c3)n2n1 [Compound B23, 7-((5-methyl-6-(piperazin-1-yl)pyridin-3-yl)methyl)-2-(pentyloxy)imidazo[2,1-f][1,2,4]triazin-4-amine] |  | 6.31
22 | COCCOCCOCCOCCOc1nc(N)c2ncc(Cc3cnc(N4CCNCC4)c(C)c3)n2n1 [Compound B100, 2-((2,5,8,11-tetraoxatridecan-13-yl)oxy)-7-((5-methyl-6-(piperazin-1-yl)pyridin-3-yl)methyl)imidazo[2,1-f][1,2,4]triazin-4-amine] |  | < 5.00
23 | CCCC(CCC)Nc1nc(N)c2ncc(Cc3cnc(N4CCNCC4)c(C)c3)n2n1 [Compound B191, N2-(heptan-4-yl)-7-((5-methyl-6-(piperazin-1-yl)pyridin-3-yl)methyl)imidazo[2,1-f][1,2,4]triazine-2,4-diamine] |  | 8.10
24 | CCCCOc1nc(N)c2ncc(Cc3cnc(N4CCN(C(C)=O)CC4)c(C)c3)n2n1 [Compound B57, 1-(4-(5-((4-amino-2-butoxyimidazo[2,1-f][1,2,4]triazin-7-yl)methyl)-3-methylpyridin-2-yl)piperazin-1-yl)ethan-1-one] |  | 5.42
25 | CCCCOc1nc(N)c2ncc(Cc3cnc(N4CC5CCCCC5C4)c(C)c3)n2n1 (stereo not shown) [Compound B38, 2-butoxy-7-((5-methyl-6-(octahydro-2H-isoindol-2-yl)pyridin-3-yl)methyl)imidazo[2,1-f][1,2,4]triazin-4-amine] |  | < 5.00
